Consider eleven compounds from US9238657B2, “Cephalosporin having catechol group” (SHIONOGI & CO., LTD., priority 2008, dated 2016).

What all share (test): Minimum Inhibitory Concentration (MIC), agar plate incubation
What all share (type): cell-based

For assay [1], the system named is Acinetobacter baumannii SR24396. How it is done:
(§1) Measurement of Minimum Inhibitory Concentration (MIC, microg/ml) was conducted according to the standard method of the Japan Society for Chemotherapy, and the amount of bacteria for inoculation was 1000 cfu/spot, and sensitive disc medium was used as the test medium, and conducted using agar plate incubation.
(§2) In the tables, a unit of the values of inhibitory activity is microg/ml (μg/ml).
(§3) Bacterial strains described in the above tables and enzyme (beta-lactamase) produced thereby are explained in Table 7.

In assay [2] the test system is Stenotrophomonas maltophilia SR21970. The following applies: Stenotrophomonas maltophilia SR21970 (L-1, MBL producer strain, carbapenem resistant); 1000 cfu/spot, sensitive disc medium; read-out: Minimum Inhibitory Concentration (MIC). How it is done: as §1, §2, §3
Assay [3] deals with Pseudomonas aeruginosa SR24. How it is done:
as §1, §2, §3

The subject of assay [4] is Pseudomonas aeruginosa SR27060. The method, then: as §1, §2, §3
Assay [5] deals with Klebsiella pneumoniae ATCC 700603. The method, then:
as §1, §2, §3

Where [6] appears, read: Acinetobacter baumannii SR24396 (no enzyme), 1000 cfu/spot, sensitive disc medium, read-out: Minimum Inhibitory Concentration (MIC).
Setting [7] is: Pseudomonas aeruginosa SR24 (no enzyme, Ceftazidime sensitive strain), 1000 cfu/spot, sensitive disc medium, read-out: Minimum Inhibitory Concentration (MIC).
Setting [8] is: Pseudomonas aeruginosa SR27060 (IMP-1, MBL producer strain, carbapenem resistant), 1000 cfu/spot, sensitive disc medium, read-out: Minimum Inhibitory Concentration (MIC).
Setting [9] is: ATCC700603, Klebsiella pneumoniae ATCC 700603 (SHV-18, ESBL producer strain), 1000 cfu/spot, sensitive disc medium, read-out: Minimum Inhibitory Concentration (MIC).

≈ marks a conversion by molar mass, not a printed value. Where two headings read alike, the source gives them in different places.

For the compound `COc1c(O)ccc(C(=O)NCC[N+]2(CC3=C(C(=O)[O-])N4C(=O)C(NC(=O)/C(=N\OC(C)(C)C(=O)O)c5csc(N)n5)C4SC3)CCCC2)c1Cl` (stereo not shown) [Comparative Compound 1, reference compound], the MIC came out at 64 µg/mL (≈ 83.5 µM) in assay [1] (setting [6]); 16 µg/mL (≈ 20.9 µM) in assay [2]; 4 µg/mL (≈ 5.22 µM) in assay [3] (setting [7]); 32 µg/mL (≈ 41.8 µM) in assay [4] (setting [8]); 16 µg/mL (≈ 20.9 µM) in assay [5] (setting [9]).

Regarding `CC(C)(O/N=C(\C(=O)N[C@@H]1C(=O)N2C(C(=O)[O-])=C(C[N+]3(CCNC(=O)c4ccc(O)c(O)c4Cl)CCCC3)CS[C@H]12)c1nsc(N)n1)C(=O)O` [Compound I-1], the MIC was 0.125 µg/mL (≈ 0.166 µM) in assay [1] (setting [6]); 0.5 µg/mL (≈ 0.664 µM) in assay [2]; 0.063 µg/mL (≈ 0.0836 µM) in assay [3] (setting [7]); 0.25 µg/mL (≈ 0.332 µM) in assay [4] (setting [8]); 0.5 µg/mL (≈ 0.664 µM) in assay [5] (setting [9]).

Take `CC(C)(O/N=C(\C(=O)N[C@@H]1C(=O)N2C(C(=O)O)=C(C[N+]3(CCNC(=O)c4ccc(O)c(O)c4)CCCC3)CS[C@H]12)c1csc(N)n1)C(=O)O` [Compound I-2]: the MIC in assay [1] (setting [6]) was 0.25 µg/mL; in assay [3] (setting [7]) it was 0.063 µg/mL; in assay [4] (setting [8]), 0.125 µg/mL; in assay [5] (setting [9]) it was 0.25 µg/mL.

On to `CC(C)(O/N=C(\C(=O)N[C@@H]1C(=O)N2C(C(=O)O)=C(C[N+]3(CCNC(=O)c4cc(Cl)c(O)c(O)c4Cl)CCCC3)CS[C@H]12)c1csc(N)n1)C(=O)O` [Compound I-3], for which the MIC turned out to be 0.125 µg/mL in assay [1] (setting [6]), 0.031 µg/mL in assay [3] (setting [7]), 0.125 µg/mL in assay [4] (setting [8]) and 0.125 µg/mL in assay [5] (setting [9]).

In the case of `CC(C)(O/N=C(\C(=O)N[C@@H]1C(=O)N2C(C(=O)[O-])=C(C[N+]3(CCNC(=O)c4ccc(O)c(O)c4Cl)CCCCCC3)CS[C@H]12)c1csc(N)n1)C(=O)O` [Compound I-8], the MIC was found to be 0.25 µg/mL (≈ 0.32 µM) in assay [1] (Acinetobacter baumannii, SR24396, read-out: Minimum Inhibitory Concentration (MIC)); 0.031 µg/mL (≈ 0.0397 µM) in assay [3] (Pseudomonas aeruginosa, SR24, read-out: Minimum Inhibitory Concentration (MIC)); 0.125 µg/mL (≈ 0.16 µM) in assay [4] (Pseudomonas aeruginosa, SR27060, read-out: Minimum Inhibitory Concentration (MIC)); 0.125 µg/mL (≈ 0.16 µM) in assay [5] (Klebsiella pneumoniae, ATCC700603, read-out: Minimum Inhibitory Concentration (MIC)).

Turning to `CC(C)(O/N=C(\C(=O)N[C@@H]1C(=O)N2C(C(=O)[O-])=C(C[N+]3(CCNC(=O)c4ccc(O)c(O)c4Cl)CCCC3)CS[C@H]12)c1csc(N)n1)C(=O)O` [Compound I-12], the MIC in assay [1] (setting [6]) is 0.25 µg/mL (≈ 0.332 µM); in assay [2], 0.5 µg/mL (≈ 0.665 µM); in assay [3] (setting [7]), 0.063 µg/mL (≈ 0.0838 µM); in assay [4] (setting [8]) it was 0.125 µg/mL (≈ 0.166 µM); in assay [5] (setting [9]), 0.25 µg/mL (≈ 0.332 µM).

In the case of `C[C@H](O/N=C(\C(=O)N[C@@H]1C(=O)N2C(C(=O)[O-])=C(C[N+]3(CCNC(=O)c4ccc(O)c(O)c4Cl)CCCC3)CS[C@H]12)c1nc(N)sc1Cl)C(=O)[O-].[Na+]` [Compound I-15], the MIC in assay [1] (setting [6]) was 0.25 µg/mL; in assay [2], 4 µg/mL; in assay [3] (setting [7]), 0.063 µg/mL; in assay [4] (setting [8]) it was 0.125 µg/mL; in assay [5] (setting [9]) it was 0.125 µg/mL.

`CC(C)(O/N=C(\C(=O)N[C@@H]1C(=O)N2C(C(=O)[O-])=C(C[N+]3(CCNC(=O)c4ccc(O)c(O)c4)CCCCC3)CS[C@H]12)c1csc(N)n1)C(=O)O` [Compound I-17]: the MIC in assay [1] (setting [6]) turned out to be 0.5 µg/mL (≈ 0.683 µM); in assay [2], 0.5 µg/mL (≈ 0.683 µM); in assay [3] (setting [7]), 0.063 µg/mL (≈ 0.0861 µM); in assay [4] (setting [8]), 0.125 µg/mL (≈ 0.171 µM); in assay [5] (setting [9]) it was 0.25 µg/mL (≈ 0.342 µM).

For the compound `C[C@H](O/N=C(\C(=O)N[C@@H]1C(=O)N2C(C(=O)[O-])=C(C[N+]3(CCNC(=O)c4cc(Cl)c(O)c(O)c4Cl)CCCCC3)CS[C@H]12)c1nc(N)sc1Cl)C(=O)[O-].[Na+]` [Compound I-23], the MIC in assay [1] (setting [6]) was determined as 0.125 µg/mL; in assay [3] (setting [7]), 0.031 µg/mL; in assay [4] (setting [8]) it was 0.125 µg/mL; in assay [5] (setting [9]) it was 0.031 µg/mL.

With `C[C@H](O/N=C(\C(=O)N[C@@H]1C(=O)N2C(C(=O)[O-])=C(C[N+]3(CCN(C)C(=O)c4ccc(O)c(O)c4)CCCC3)CS[C@H]12)c1nc(N)sc1Cl)C(=O)O` [Compound I-25], the MIC was determined as 0.5 µg/mL (≈ 0.665 µM) in assay [1] (setting [6]), 0.125 µg/mL (≈ 0.166 µM) in assay [3] (setting [7]), 0.25 µg/mL (≈ 0.332 µM) in assay [4] (setting [8]) and 0.5 µg/mL (≈ 0.665 µM) in assay [5] (setting [9]).

Turning to `C[C@H](O/N=C(\C(=O)N[C@@H]1C(=O)N2C(C(=O)[O-])=C(C[N+]3(CCCNC(=O)c4ccc(O)c(O)c4)CCCC3)CS[C@H]12)c1nc(N)sc1Cl)C(=O)O` [Compound I-26], the MIC was determined as 1 µg/mL (≈ 1.33 µM) in assay [1] (setting [6]), 0.125 µg/mL (≈ 0.166 µM) in assay [3] (setting [7]), 0.5 µg/mL (≈ 0.665 µM) in assay [4] (setting [8]) and 0.5 µg/mL (≈ 0.665 µM) in assay [5] (setting [9]).
